Reference: US20200138927A1, “NON-CROSS-LINKED […] […] […] FOR USE IN C[…]” (GlaxoSmithKline Biologicals SA, priority 2012, published 2020)
≈ marks a conversion by molar mass, not a printed value.

What was measured:
Solubility in water = assay type: physicochemical
[1] = Adsorption to aluminium hydroxide; assay type: physicochemical

In the case of Cc1ccc2c(c1)nc(N)c1ncc(CCc3ccc(OCCOCCOCCC(F)(F)P(=O)(O)O)cc3C)cc12 [Compound K1], the solubility (Solubility in water) is reported as ~4000 µg/mL (≈ 6.78 mM) and the “adsorption to aluminium hydroxide” value [1] is reported as “adsorbs well”.
